Assay results: ChEMBL document CHEMBL4052744, “Diverse heterocyclic scaffolds as dCTP pyrophosphatase 1 inhibitors. Part 1: Triazoles, triazolopyrimidines, triazinoindoles, quinoline hydrazones and arylpiperazines” (Bioorg Med Chem Lett, 2017)

Biological target: T1, dCTP pyrophosphatase 1 (Homo sapiens, UniProt Q9H773)
T1 sequence (Q9H773 whole entry): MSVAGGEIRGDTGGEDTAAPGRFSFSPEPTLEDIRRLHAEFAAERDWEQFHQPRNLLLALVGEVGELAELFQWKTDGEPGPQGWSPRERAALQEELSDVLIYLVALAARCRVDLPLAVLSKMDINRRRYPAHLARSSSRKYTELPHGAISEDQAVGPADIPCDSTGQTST
Test: Inhibition of human dCTPase 1

Compound | IC50
COc1ccc2c(c1)c1nnc(SCCN3CCOCC3)nc1n2C | 0.55 µM
CC(C)(C)c1cc(=O)[nH]c(N2CCN(Cc3ccc4c(c3)OCO4)CC2)n1 | 1.1 µM
CCc1c(C)nc(N2CCN(c3ccc(OC)cc3)CC2)nc1O | 1.1 µM
CCOc1ccc(C(=O)N2CCN(c3cnn(-c4ccccc4)c(=O)c3Cl)CC2)cc1 | 1.2 µM
O=C(c1ccccc1Cl)N1CCN(c2ccc([N+](=O)[O-])c(NC3CC3)c2)CC1 | 1.1 µM
O=C(c1ccco1)N1CCN(c2nc3ccccc3n3cnnc23)CC1 | 0.98 µM
CCNc1cc(N2CCN(C(=O)c3ccc(CC)cc3)CC2)ccc1[N+](=O)[O-] | 0.91 µM
COc1ccccc1C(=O)N1CCN(c2cnn(-c3ccccc3)c(=O)c2Cl)CC1 | 0.66 µM
Cn1c2ccccc2c2nnc(SCCN3CCCCC3)nc21 | 1.91 µM
CCc1c(C)nc(N2CCN(c3cccc(OC)c3)CC2)nc1O | 1.4 µM
CS(=O)(=O)N1CCN(c2cnn(-c3ccccc3)c(=O)c2Cl)CC1 | 3.2 µM
CCNc1cc(N2CCN(C(=O)c3ccccc3C)CC2)ccc1[N+](=O)[O-] | 0.81 µM
CCn1c2ccccc2c2nnc(SCCN3CCCCC3)nc21 | 0.94 µM
CCNc1cc(N2CCN(C(=O)c3ccc(OC)cc3)CC2)ccc1[N+](=O)[O-] | 1.5 µM
